# Patent publication US20260152498A1, “4,5,6,7-TETRAHYDRO-1H-PYRAZOLO[4,3-c]PYRIDINE COMPOUNDS AND DERIVATIVES AS USP1 INHIBITORS” (EXELIXIS, INC., priority 2022, published 2026)
# Experiments:
# [1] = target: T1, USP1-UAF1 complex (Homo sapiens, UniProt O94782); conditions: 1.2 µM
# [2] = target: T1, USP1-UAF1 complex; assay: biochemical
# T1 sequence (O94782 whole entry): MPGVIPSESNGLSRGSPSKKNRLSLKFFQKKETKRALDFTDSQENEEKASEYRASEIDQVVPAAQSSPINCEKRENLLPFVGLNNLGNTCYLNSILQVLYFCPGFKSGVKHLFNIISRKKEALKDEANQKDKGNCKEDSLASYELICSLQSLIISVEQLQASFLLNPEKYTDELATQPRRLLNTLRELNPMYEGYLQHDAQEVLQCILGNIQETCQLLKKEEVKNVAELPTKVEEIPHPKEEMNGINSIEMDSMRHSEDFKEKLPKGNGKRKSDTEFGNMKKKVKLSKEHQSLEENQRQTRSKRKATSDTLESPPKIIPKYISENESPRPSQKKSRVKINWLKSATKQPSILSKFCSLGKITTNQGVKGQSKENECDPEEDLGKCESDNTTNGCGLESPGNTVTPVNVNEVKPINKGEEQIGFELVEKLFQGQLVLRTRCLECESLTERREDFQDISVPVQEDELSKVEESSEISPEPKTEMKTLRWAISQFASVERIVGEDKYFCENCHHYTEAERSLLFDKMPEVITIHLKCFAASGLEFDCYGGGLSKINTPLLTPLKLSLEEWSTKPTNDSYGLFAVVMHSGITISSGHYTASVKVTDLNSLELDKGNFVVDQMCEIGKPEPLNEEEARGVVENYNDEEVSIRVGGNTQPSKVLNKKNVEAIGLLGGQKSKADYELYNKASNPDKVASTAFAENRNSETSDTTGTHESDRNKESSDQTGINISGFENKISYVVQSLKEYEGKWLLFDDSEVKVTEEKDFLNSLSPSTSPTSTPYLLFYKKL
# T1 sequence (Q8TAF3 whole entry partner): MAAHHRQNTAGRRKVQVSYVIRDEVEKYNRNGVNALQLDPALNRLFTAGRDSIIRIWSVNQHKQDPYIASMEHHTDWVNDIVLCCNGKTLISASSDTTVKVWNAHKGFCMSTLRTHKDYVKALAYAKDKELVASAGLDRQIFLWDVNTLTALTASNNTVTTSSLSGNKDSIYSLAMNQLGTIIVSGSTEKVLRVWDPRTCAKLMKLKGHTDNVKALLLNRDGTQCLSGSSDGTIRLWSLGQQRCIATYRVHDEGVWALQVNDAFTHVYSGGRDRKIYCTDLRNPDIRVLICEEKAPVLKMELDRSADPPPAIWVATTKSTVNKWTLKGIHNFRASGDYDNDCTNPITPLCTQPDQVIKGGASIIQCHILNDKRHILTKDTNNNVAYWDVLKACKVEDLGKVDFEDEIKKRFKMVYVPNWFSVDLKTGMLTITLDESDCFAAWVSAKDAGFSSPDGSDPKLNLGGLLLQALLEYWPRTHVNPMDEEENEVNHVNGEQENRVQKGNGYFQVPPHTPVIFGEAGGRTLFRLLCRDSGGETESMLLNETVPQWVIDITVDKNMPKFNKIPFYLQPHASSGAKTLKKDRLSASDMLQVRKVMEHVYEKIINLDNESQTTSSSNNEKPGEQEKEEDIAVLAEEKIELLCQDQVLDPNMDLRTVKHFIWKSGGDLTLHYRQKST
inhibition [1] [%],IC50 [2] [µM],Structure (SMILES)
98,< 0.05,"COc1ncnc(C2CC2)c1-c1nn(C)c2c1CN(c1ccc(-c3nc(C(F)(F)F)cn3C)c(Cl)c1)CC2 [Compound 45, 5-(3-chloro-4-(1-methyl-4-(trifluoromethyl)-1H-imidazol-2-yl)phenyl)-3-(4-cyclopropyl-6-methoxypyrimidin-5-yl)-1-methyl-4,5,6,7-tetrahydro-1H-pyrazolo[4,3-c]pyridine]"
5,> 0.1,"COc1ncnc(C2CC2)c1-c1nn(C)c2c1CN(c1ccc(-c3nn(C)c4c3CNCC4)cc1)CC2 [Compound 56, 3-(4-cyclopropyl-6-methoxypyrimidin-5-yl)-1-methyl-5-(4-(1-methyl-4,5,6,7-tetrahydro-1H-pyrazolo[4,3-c]pyridin-3-yl)phenyl)-4,5,6,7-tetrahydro-1H-pyrazolo[4,3-c]pyridine]"
20,> 0.1,"COc1ncnc(C2CC2)c1-c1nn(C)c2c1CN(c1csc(-c3nc(C(F)(F)F)cn3C)n1)CC2 [Compound 50, 4-(3-(4-cyclopropyl-6-methoxypyrimidin-5-yl)-1-methyl-1,4,6,7-tetrahydro-5H-pyrazolo[4,3-c]pyridin-5-yl)-2-(1-methyl-4-(trifluoromethyl)-1H-imidazol-2-yl)thiazole]"
95,0.05 to 0.1,"CCOc1cc(N2CCc3c(c(-c4c(OC)ncnc4C4CC4)nn3C)C2)ccc1-c1nc(C(F)(F)F)cn1C [Compound 47, 3-(4-cyclopropyl-6-methoxypyrimidin-5-yl)-5-(3-ethoxy-4-(1-methyl-4-(trifluoromethyl)-1H-imidazol-2-yl)phenyl)-1-methyl-4,5,6,7-tetrahydro-1H-pyrazolo[4,3-c]pyridine]"
99,< 0.05,"COc1ncnc(C2CC2)c1-c1nn(C)c2c1CN(c1ccc(-c3nc(C(F)(F)F)cn3C)cc1)CC2C (centres unmarked) [Compound 38, 3-(4-cyclopropyl-6-methoxypyrimidin-5-yl)-1,7-dimethyl-5-(4-(1-methyl-4-(trifluoromethyl)-1H-imidazol-2-yl)phenyl)-4,5,6,7-tetrahydro-1H-pyrazolo[4,3-c]pyridine]"
97,0.05 to 0.1,"COc1ncnc(C2CC2)c1-c1nn(C)c2c1CN(c1ccc(-c3nc(C(F)(F)F)cn3C)c(N(C)C)c1)CC2 [Compound 48, 5-(3-(4-cyclopropyl-6-methoxypyrimidin-5-yl)-1-methyl-1,4,6,7-tetrahydro-5H-pyrazolo[4,3-c]pyridin-5-yl)-N,N-dimethyl-2-(1-methyl-4-(trifluoromethyl)-1H-imidazol-2-yl)aniline]"
97,0.05 to 0.1,"COc1ncnc(C2CC2)c1-c1nn(C)c2c1CN(c1ccc(-c3nc(C(F)(F)F)cn3C)cn1)CC2C (centres unmarked) [Compound 40, 3-(4-cyclopropyl-6-methoxypyrimidin-5-yl)-1,7-dimethyl-5-(5-(1-methyl-4-(trifluoromethyl)-1H-imidazol-2-yl)pyridin-2-yl)-4,5,6,7-tetrahydro-1H-pyrazolo[4,3-c]pyridine]"
96,0.05 to 0.1,"COc1ncnc(C2CC2)c1-c1nn(C)c2c1CN(c1ccc(-c3nc(C(F)(F)F)cn3C)nc1)CC2(C)C [Compound 42, 3-(4-cyclopropyl-6-methoxypyrimidin-5-yl)-1,7,7-trimethyl-5-(6-(1-methyl-4-(trifluoromethyl)-1H-imidazol-2-yl)pyridin-3-yl)-4,5,6,7-tetrahydro-1H-pyrazolo[4,3-c]pyridine]"
14,> 0.1,"COc1ncnc(C2CC2)c1-c1nn(C)c2c1CN(c1csc(-c3nc(C(F)(F)F)cn3C)c1)CC2 [Compound 49, 3-(4-cyclopropyl-6-methoxypyrimidin-5-yl)-1-methyl-5-(5-(1-methyl-4-(trifluoromethyl)-1H-imidazol-2-yl)thiophen-3-yl)-4,5,6,7-tetrahydro-1H-pyrazolo[4,3-c]pyridine]"
95,0.05 to 0.1,"COc1ncnc(C2CC2)c1-c1nn(C)c2c1CN(c1cnc(-n3nc(C(F)(F)F)cc3C)nc1)CC2 [Compound 51, 3-(4-cyclopropyl-6-methoxypyrimidin-5-yl)-1-methyl-5-(2-(5-methyl-3-(trifluoromethyl)-1H-pyrazol-1-yl)pyrimidin-5-yl)-4,5,6,7-tetrahydro-1H-pyrazolo[4,3-c]pyridine]"
96,0.05 to 0.1,"COc1cc(N2CCc3c(c(-c4c(OC)ncnc4C4CC4)nn3C)C2)ccc1-c1nc(C(F)(F)F)cn1C [Compound 46, 3-(4-cyclopropyl-6-methoxypyrimidin-5-yl)-5-(3-methoxy-4-(1-methyl-4-(trifluoromethyl)-1H-imidazol-2-yl)phenyl)-1-methyl-4,5,6,7-tetrahydro-1H-pyrazolo[4,3-c]pyridine]"
98,0.05 to 0.1,"COc1ncnc(C2CC2)c1-c1nn(C)c2c1CN(c1ccc(-c3nc(C(F)(F)F)cn3C)nc1)CC2C (centres unmarked) [Compound 39, 3-(4-cyclopropyl-6-methoxypyrimidin-5-yl)-1,7-dimethyl-5-(6-(1-methyl-4-(trifluoromethyl)-1H-imidazol-2-yl)pyridin-3-yl)-4,5,6,7-tetrahydro-1H-pyrazolo[4,3-c]pyridine]"
98,0.05 to 0.1,"COc1ncnc(C2CC2)c1-c1nn(C)c2c1CN(c1ccc(-c3nc(C(F)(F)F)cn3C)cn1)CC2(C)C [Compound 43, 3-(4-cyclopropyl-6-methoxypyrimidin-5-yl)-1,7,7-trimethyl-5-(5-(1-methyl-4-(trifluoromethyl)-1H-imidazol-2-yl)pyridin-2-yl)-4,5,6,7-tetrahydro-1H-pyrazolo[4,3-c]pyridine]"

# The remaining lines, values behind:
Structure (SMILES),inhibition [1] [%],IC50 [2] [µM]
"COc1ncnc(C2CC2)c1-c1nn(C)c2c1CN(c1ccc(-n3nc(C(F)(F)F)cc3C)cc1)CC2 [Compound 17, 3-(4-cyclopropyl-6-methoxypyrimidin-5-yl)-1-methyl-5-(4-(5-methyl-3-(trifluoromethyl)-1H-pyrazol-1-yl)phenyl)-4,5,6,7-tetrahydro-1H-pyrazolo[4,3-c]pyridine]",100,< 0.05
"COc1ncnc(C2CC2)c1-c1nn(C)c2c1CN(c1ccc(-c3nc(C(F)(F)F)cn3C3CC3)cc1)CC2 [Compound 7, 5-(4-(1-cyclopropyl-4-(trifluoromethyl)-1H-imidazol-2-yl)phenyl)-3-(4-cyclopropyl-6-methoxypyrimidin-5-yl)-1-methyl-4,5,6,7-tetrahydro-1H-pyrazolo[4,3-c]pyridine]",100,< 0.05
"COc1ncccc1-c1ccc(N2CCc3c(c(-c4c(OC)ncnc4C4CC4)nn3C)C2)nc1 [Compound 22, 3-(4-cyclopropyl-6-methoxypyrimidin-5-yl)-5-(2'-methoxy-[3,3′-bipyridin]-6-yl)-1-methyl-4,5,6,7-tetrahydro-1H-pyrazolo[4,3-c]pyridine]",39,> 0.1
"COc1cccc(C2CC2)c1-c1nn(C)c2c1CN(c1ccc(-c3nc(C(F)(F)F)cn3C)cc1)CC2 [Compound 2, 3-(2-cyclopropyl-6-methoxyphenyl)-1-methyl-5-(4-(1-methyl-4-(trifluoromethyl)-1H-imidazol-2-yl)phenyl)-4,5,6,7-tetrahydro-1H-pyrazolo[4,3-c]pyridine]",–,< 0.05
"COc1ncnc(C2CC2)c1-c1nn(C2CCC2)c2c1CN(c1ccc(-c3nc(C(F)(F)F)cn3C)nc1)CC2 [Compound 34, 1-cyclobutyl-3-(4-cyclopropyl-6-methoxypyrimidin-5-yl)-5-(6-(1-methyl-4-(trifluoromethyl)-1H-imidazol-2-yl)pyridin-3-yl)-4,5,6,7-tetrahydro-1H-pyrazolo[4,3-c]pyridine]",75,> 0.1
"COc1ncnc(C2CC2)c1-c1nn(C)c2c1CN(c1ccc(-n3nc(C(F)(F)F)cc3OC)cc1)CC2 [Compound 19, 3-(4-cyclopropyl-6-methoxypyrimidin-5-yl)-5-(4-(5-methoxy-3-(trifluoromethyl)-1H-pyrazol-1-yl)phenyl)-1-methyl-4,5,6,7-tetrahydro-1H-pyrazolo[4,3-c]pyridine]",99,< 0.05
"COc1ncnc(C2CC2)c1-c1nn(C2CCC2)c2c1CN(c1ccc(-c3nc(C(F)(F)F)cn3C)cn1)CC2 [Compound 35, 1-cyclobutyl-3-(4-cyclopropyl-6-methoxypyrimidin-5-yl)-5-(5-(1-methyl-4-(trifluoromethyl)-1H-imidazol-2-yl)pyridin-2-yl)-4,5,6,7-tetrahydro-1H-pyrazolo[4,3-c]pyridine]",76,> 0.1
"CCn1nc(-c2c(OC)ncnc2C2CC2)c2c1CCN(c1ccc(-c3nc(C(F)(F)F)cn3C)cc1)C2 [Compound 24, 3-(4-cyclopropyl-6-methoxypyrimidin-5-yl)-1-ethyl-5-(4-(1-methyl-4-(trifluoromethyl)-1H-imidazol-2-yl)phenyl)-4,5,6,7-tetrahydro-1H-pyrazolo[4,3-c]pyridine]",98,< 0.05
"COc1ncnc(C2CC2)c1-c1nn(C)c2c1CN(c1ccc(-c3nc(C(F)(F)F)cn3C)nc1)CC2 [Compound 12, 3-(4-cyclopropyl-6-methoxypyrimidin-5-yl)-1-methyl-5-(6-(1-methyl-4-(trifluoromethyl)-1H-imidazol-2-yl)pyridin-3-yl)-4,5,6,7-tetrahydro-1H-pyrazolo[4,3-c]pyridine]",98,< 0.05
"COc1ncnc(C2CC2)c1-c1nn(C)c2c1CN(c1ccc(-c3nc(C(F)(F)F)cn3CCN(C)C)cc1)CC2 [Compound 10, 2-(2-(4-(3-(4-cyclopropyl-6-methoxypyrimidin-5-yl)-1-methyl-1,4,6,7-tetrahydro-5H-pyrazolo[4,3-c]pyridin-5-yl)phenyl)-4-(trifluoromethyl)-1H-imidazol-1-yl)-N,N-dimethylethan-1-amine]",88,> 0.1
"COc1ncnc(C2CC2)c1-c1nn(C2CC2)c2c1CN(c1ccc(-c3nc(C(F)(F)F)cn3C)nc1)CC2 [Compound 31, 1-cyclopropyl-3-(4-cyclopropyl-6-methoxypyrimidin-5-yl)-5-(6-(1-methyl-4-(trifluoromethyl)-1H-imidazol-2-yl)pyridin-3-yl)-4,5,6,7-tetrahydro-1H-pyrazolo[4,3-c]pyridine]",86,> 0.1
